Results taken from patent publication US12077503B2, “Substituted cyclic amides and their use as herbicides” (FMC CORPORATION, priority 2015, dated 2024).
Where two headings read alike, the source gives them in different places.

Legend:
[1] = test system: sedge, umbrella (small-flower umbrella sedge, Cyperus difformis); test: Test B flooded paddy test; type: in vivo; conditions: Cyperus difformis, 250 g ai/ha, Flood, read-out: Sedge, Umbrella plant response rating
Outline: (§1)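 Flooding to 3 cm over soil accompanied treatment, which consisted of adding compound to the standing water around 2-leaf plants; depth was then maintained. Visual assessment versus controls followed at 13 to 15 d (scale 0–100, 0 meaning no effect).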

rice (Oryra sativa) = test: Test B flooded paddy test; type: in vivo; conditions: Oryza sativa, 250 g ai/ha, Flood, read-out: Rice plant response rating
Outline: as §1

[2] = test system: ducksalad (Heteranthera limosa); test: Test B flooded paddy test; type: in vivo; conditions: Heteranthera limosa, 250 g ai/ha, Flood, read-out: Ducksalad plant response rating
Outline: as §1

[3] = test system: barnyardgrass (Echinochloa crus-galli); test: Test B flooded paddy test; type: in vivo; conditions: Echinochloa crus-galli, 250 g ai/ha, Flood, read-out: Barnyardgrass plant response rating
Outline: as §1

[4] = 0 to 100 scale where 0 is no effect and 100 is complete control
[5] = scale of 0 to 100 where 0 is no effect and 100 is complete control

SMILES | melting point [°C] | pest or weed control at 250 g/ha [1, 4] [%] | pest or weed control at 250 g/ha (rice (Oryra sativa); [4]) [%] | pest or weed control at 250 g/ha [2, 4] [%] | pest or weed control at 250 g/ha [3, 4] [%] | pest or weed control at 250 g/ha [1, 5] [%] | pest or weed control at 250 g/ha (rice (Oryra sativa); [5]) [%] | pest or weed control at 250 g/ha [2, 5] [%] | pest or weed control at 250 g/ha [3, 5] [%]
O=C1NC[C@H](c2cccc(I)c2)[C@H]1C(=O)Nc1ccccc1F [Compound 1160] | 161 to 164 | 0 | 20 | 80 | 0 | – | – | – | –
CN1CC(c2ccccc2OC(F)(F)C(F)F)C(C(=O)Nc2ccccc2F)C1=O (stereo not drawn) [Compound 1053] | 118 to 121 | 0 | 0 | 0 | 0 | – | – | – | –
O=C1NC[C@H](c2cncc(C(F)(F)F)c2)[C@H]1C(=O)Nc1ccccc1F [Compound 887] | 192 to 195 | – | – | – | – | 0 | 0 | 65 | 50
O=C1NCC(c2ccccc2OC(F)(F)C(F)F)C1C(=O)Nc1cccc(F)c1F (stereo not drawn) [Compound 1054] | 192 to 196 | 0 | 0 | 0 | 0 | – | – | – | –
O=C1NC[C@H](c2ccc3c(c2)CCO3)[C@H]1C(=O)Nc1ccc(F)cc1F [Compound 902] | – | – | – | – | – | 0 | 0 | 75 | 0
CN1C[C@H](c2cccc(COC(F)F)c2)[C@@H](C(=O)Nc2ccccc2S(C)(=O)=O)C1=O [Compound 877] | – | – | – | – | – | 0 | 0 | 100 | 55
CN1C[C@H](c2cc(F)cc(F)c2)[C@@H](C(=O)Nc2ncc(C(F)(F)F)cc2F)C1=O [Compound 868] | – | – | – | – | – | 0 | 0 | 0 | 0
Cc1cc(C)cc([C@H]2CN(C)C(=O)[C@@H]2C(=O)Nc2ccccc2C(F)(F)F)c1 [Compound 912] | – | – | – | – | – | 0 | 0 | 50 | 50
CN1CC[C@H](c2ccc(F)cc2)[C@@H](C(=O)Nc2ccccc2F)C1=O [Compound 917] | – | – | – | – | – | 0 | 0 | 40 | 0
O=C1NC[C@H](c2csc(C(F)F)c2)[C@H]1C(=O)Nc1ccccc1F [Compound 1118] | – | 0 | 40 | 100 | 65 | – | – | – | –
Cc1nc([C@H]2CNC(=O)[C@@H]2C(=O)Nc2ccccc2F)cs1 [Compound 1179] | – | 0 | 0 | 40 | 0 | – | – | – | –
O=C1NC[C@H](c2ccc3c(c2)CCCO3)[C@H]1C(=O)Nc1ccccc1F [Compound 885] | – | – | – | – | – | 0 | 0 | 60 | 0
Cc1c(F)ccc([C@H]2CN(C)C(=O)[C@@H]2C(=O)Nc2ccccc2C(F)(F)F)c1F [Compound 841] | – | – | – | – | – | 0 | 0 | 80 | 40
COc1c(F)ccc([C@H]2CN(C)C(=O)[C@@H]2C(=O)Nc2cccc(F)c2F)c1Cl [Compound 893] | – | – | – | – | – | 0 | 10 | 90 | 90
Cc1cc([C@H]2CN(C)C(=O)[C@@H]2C(=O)Nc2cccc(F)c2F)ccc1Cl [Compound 929] | – | – | – | – | – | 0 | 0 | 60 | 40
O=C(Nc1ccccc1F)[C@H]1C(=S)NC[C@@H]1c1ccc(C(F)(F)F)cc1 (racemic) [Compound 1047] | – | 0 | 0 | 0 | 0 | – | – | – | –
CCOc1ccc([C@H]2CNC(=O)[C@@H]2C(=O)Nc2ccccc2F)cc1 [Compound 906] | – | – | – | – | – | 0 | 0 | 0 | 0
Cc1c(F)cccc1NC(=O)[C@H]1C(=O)N(C)C[C@@H]1c1cc(F)c(F)c(F)c1 [Compound 867] | – | – | – | – | – | 30 | 30 | 100 | 65

SMILES | melting point [°C] | pest or weed control at 250 g/ha [1, 4] [%] | pest or weed control at 250 g/ha (rice (Oryra sativa); [4]) [%] | pest or weed control at 250 g/ha [2, 4] [%] | pest or weed control at 250 g/ha [3, 4] [%] | pest or weed control at 250 g/ha [1, 5] [%] | pest or weed control at 250 g/ha (rice (Oryra sativa); [5]) [%] | pest or weed control at 250 g/ha [2, 5] [%] | pest or weed control at 250 g/ha [3, 5] [%]
O=C1NC[C@H](c2cc(F)c(C(F)(F)F)c(F)c2)[C@H]1C(=O)Nc1ccc(F)cc1F [Compound 840] | – | – | – | – | – | 0 | 0 | 80 | 0
CCOc1ccc([C@H]2CN(C)C(=O)[C@@H]2C(=O)Nc2ccccc2F)cc1 [Compound 903] | – | – | – | – | – | 0 | 0 | 0 | 0
Cc1c(F)cccc1NC(=O)[C@H]1C(=O)N(C)C[C@@H]1c1cc(F)cc(F)c1 [Compound 1140] | – | 0 | 0 | 100 | 75 | – | – | – | –
Cc1ccc([C@H]2CNC(=O)[C@@H]2C(=O)Nc2ccccc2S(C)(=O)=O)cc1C [Compound 1037] | – | 0 | 0 | 100 | 25 | – | – | – | –
COc1c(F)ccc([C@H]2CN(C)C(=O)[C@@H]2C(=O)Nc2ccc(F)cc2F)c1Cl [Compound 894] | – | – | – | – | – | 0 | 0 | 100 | 70
COc1ccc(CN2CC[C@H](c3ccc(F)cc3)[C@@H](C(=O)Nc3cccc(F)c3F)C2=O)cc1 [Compound 919] | – | – | – | – | – | 0 | 0 | 0 | 0
CN1C[C@H](c2cc(F)c(C(F)(F)F)c(F)c2)[C@@H](C(=O)Nc2cccc(F)c2F)C1=O [Compound 898] | – | – | – | – | – | 0 | 0 | 70 | 55
Cc1cc(F)ccc1NC(=O)[C@H]1C(=O)NC[C@@H]1c1cccc(C(F)(F)F)c1 [Compound 828] | – | – | – | – | – | 0 | 0 | 30 | 0
Cc1ccc([C@H]2CCN(C)C(=O)[C@@H]2C(=O)Nc2ccc(F)c(F)c2F)cc1 [Compound 1221] | – | 0 | 0 | 100 | 85 | – | – | – | –
CCOc1ccc([C@H]2CNC(=O)[C@@H]2C(=O)Nc2cccc(F)c2F)cc1 [Compound 907] | – | – | – | – | – | 0 | 0 | 50 | 0
O=C(Nc1cccc(F)c1F)[C@H]1C(=O)N(C2CC2)CC[C@@H]1c1cccc(C(F)(F)F)c1 [Compound 925] | – | – | – | – | – | 0 | 0 | 0 | 0
CC(C)COc1cccc([C@H]2CN(C)C(=O)[C@@H]2C(=O)Nc2cccc(F)c2F)c1 [Compound 1029] | – | 0 | 0 | 85 | 0 | – | – | – | –
C/C=C/N1C[C@@H](c2cccc(C(F)(F)F)c2)[C@H](C(=O)Nc2ccccc2F)C1=O (racemic) [Compound 1094] | – | 0 | 0 | 0 | 45 | – | – | – | –
Cc1cc([C@H]2CNC(=O)[C@@H]2C(=O)Nc2ccc(F)cc2F)ccc1C(F)(F)F [Compound 1043] | – | 0 | 0 | 90 | 0 | – | – | – | –
COc1cc([C@H]2CN(C)C(=O)[C@@H]2C(=O)Nc2cccc(F)c2F)cc(OC)c1OC [Compound 1210] | – | 0 | 20 | 30 | 50 | – | – | – | –
CC(C)c1cccc([C@H]2CN(C)C(=O)[C@@H]2C(=O)Nc2ccc(F)cc2F)c1 [Compound 821] | – | – | – | – | – | 0 | 0 | 80 | 60
Cc1c(F)ccc([C@H]2CN(C)C(=O)[C@@H]2C(=O)Nc2ccc(F)c(F)c2F)c1F [Compound 836] | – | – | – | – | – | 0 | 0 | 95 | 65
